Measured values taken from patent US9845310B2 (priority 2015, dated 2017).
Several values for one entry are separate records, joined by “and”; a condition that tells them apart may be missing. Equal values may be shown once. Read-outs that look alike come from different tables or passages of the source.

Columns and labels:
[1] = system: heart failure rat model; type: in vivo; details: for cardiac contractility as measured by dP/dtmax (derivative of left ventricular pressure): male Lewis rats, heart failure by permanent ligation of left descending coronary artery, ejection fraction <35%, dosed acutely for 30 min
Method: Male Lewis rats (Charles River, USA) at 2-3 months of age were used for the study. […] APJ agonists were administered dose dependently acutely for a period of 30 min.

[2] = system: naive Sprague Dawley rat hearts; details: for left ventricular dP/dtmax (load independent cardiac contractility) / left ventricular dP/dtmin (load independent cardiac relaxation): ex vivo naive Sprague Dawley rat hearts, Langendorff apparatus, as a function of concentration
[3] = system: heart failure rat model; details: captopril alone, acute settings, heart failure rats in vivo
[4] = target: human APJ and the AT1R receptor (Homo sapiens (Human), UniProt P30556+P35414); test: IP1 TR-FRET assay of AngII response with or without APJ agonists in double stable CHO-K1 APJ/AT1R cells; type: cell-based; details: in the presence of AngII; losartan added
Chain of human APJ and the AT1R receptor (P35414 whole entry, looked up, the tested form may be a part): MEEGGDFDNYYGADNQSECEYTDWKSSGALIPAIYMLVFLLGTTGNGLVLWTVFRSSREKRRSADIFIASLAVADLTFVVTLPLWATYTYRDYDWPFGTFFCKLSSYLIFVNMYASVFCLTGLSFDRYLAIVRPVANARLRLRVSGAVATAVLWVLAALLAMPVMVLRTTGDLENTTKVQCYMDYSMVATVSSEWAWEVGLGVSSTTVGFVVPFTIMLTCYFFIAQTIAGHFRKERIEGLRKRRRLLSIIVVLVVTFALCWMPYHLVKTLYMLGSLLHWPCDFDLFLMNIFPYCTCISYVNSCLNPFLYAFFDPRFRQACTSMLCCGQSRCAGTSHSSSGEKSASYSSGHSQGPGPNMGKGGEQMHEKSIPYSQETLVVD
Chain of human APJ and the AT1R receptor (P30556 whole entry, looked up, the tested form may be a part): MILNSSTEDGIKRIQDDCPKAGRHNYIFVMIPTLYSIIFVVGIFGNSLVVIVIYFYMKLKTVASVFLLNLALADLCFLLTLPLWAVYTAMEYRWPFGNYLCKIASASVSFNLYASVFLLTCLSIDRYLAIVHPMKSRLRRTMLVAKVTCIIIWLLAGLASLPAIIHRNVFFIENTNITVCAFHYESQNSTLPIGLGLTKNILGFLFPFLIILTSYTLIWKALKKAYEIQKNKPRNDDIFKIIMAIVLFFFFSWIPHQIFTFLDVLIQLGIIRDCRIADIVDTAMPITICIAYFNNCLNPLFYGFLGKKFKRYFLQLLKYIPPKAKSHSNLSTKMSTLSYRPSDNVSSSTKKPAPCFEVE
Method: Single and double stable recombinant cell lines were generated for human APJ and the AT1R receptor in CHO K1 cells tagged either with FLAG or hemagglutinin (HA) tag. Briefly, the CHO-K1 APJ/AT1R cells were seeded in culture medium of DMEM-F12 and 10% FBS at a density of 15 k/well in a 96 well plate overnight. The next day, the culture medium was replaced with medium containing no serum for 4 hours. The compound AngII at a range of concentrations (1 pM-10 μM) with or without different concentrations of APJ agonists were diluted in stimulation buffer and added to the cell plate. The plate was sealed and incubated for 1 hour. This was followed by addition of IP-d2 conjugate followed by europium cryptate antibody conjugate into the wells. The plate was sealed, followed with incubation for 2 hours at room temperature. Time-resolved fluorescence resonance energy (TR-FRET) at 620 nm and 665 nm was measured after 2 hours with an Envision reader. The signal ratios and delta F were calculated and the amount of IP1 produced was inversely proportional to the TR-FRET ratio, 665/620 nm.

[5] = system: isolated perfused rat hearts; test: Ex vivo isolated perfused rat heart (Langendorff) assay, load independent inotropic and lusitropic effects; details: ARB losartan together with APJ agonist
[6] = target: APJ (Homo sapiens (Human), UniProt P35414); details: 2003 study, Medhurst et al.; cited from earlier work
Chain of APJ (P35414 whole entry): as the sequence (P35414 whole entry, looked up, the tested form may be a part) above

[7] = target: human AT1R receptor expressed in the CHO cell line (Homo sapiens (Human), UniProt P30556); details: different concentrations of AngII with fixed concentration of pyr apelin-13; human AT1R expressed alone in CHO cells
Chain of human AT1R receptor expressed in the CHO cell line (P30556 whole entry): as the sequence (P30556 whole entry, looked up, the tested form may be a part) above
Method: The function of the inositol phosphate accumulation (IP1) was measured by Time-resolved fluorescence resonance energy (TR-FRET) at 620 nm and 665 nm respectively.

[8] = in vivo heart failure (MI) rat, acute administration for 30 min
[9] = ex vivo isolated perfused rat heart, contractility, percent change over vehicle
[10] = ex vivo isolated perfused rat heart, relaxation (lusitropic), percent change over vehicle

In the case of `COc1cccc(OC)c1-n1c(NS(=O)(=O)[C@@H](C)[C@H](OC(C)C)c2ncc(C)cn2)nnc1-c1cncc(C)c1` (stereo in doubt) [Example 93.0, (1R,2S)-N-(4-(2,6-dimethoxyphenyl)-5-(5-methylpyridin-3-yl)-4H-1,2,4-triazol-3-yl)-1-isopropoxy-1-(5-methylpyrimidin-2-yl)propane-2-sulfonamide], the “MI Rat Model dP/dtmax(%)” value [1, 8] was 20%, the “Isolated Heart Assay dP/dtmax(%)” value [2, 9] was 19.0% and the “Isolated Heart Assay dP/dtmin(%)” value [2, 10] was 27.0%.

For `C[C@H](CS)C(=O)N1CCC[C@H]1C(=O)O` [Captopril, captopril], the “contractility or ejection fraction” value [3] was “does not show a marked improvement”.

With `COc1cccc(-c2nnc(NS(=O)(=O)[C@@H](C)[C@H](OC)c3ncc(C)cn3)n2-c2c(OC)cccc2OC)n1` [Example 27.0, (1R,2S)-N-(4-(2,6-dimethoxyphenyl)-5-(6-methoxypyridin-2-yl)-4H-1,2,4-triazol-3-yl)-1-methoxy-1-(5-methylpyrimidin-2-yl)propane-2-sulfonamide] the “MI Rat Model dP/dtmax(%)” value [1, 8] was 20%, the “cardiac contractility as measured by dP/dtmax (derivative of left ventricular pressure)” value [1] was “increase in cardiac contractility” and the “Isolated Heart Assay dP/dtmax(%)” value [2, 9] was 26%. For the same compound, the “Isolated Heart Assay dP/dtmin(%)” value [2, 10] was 20%, the “left ventricular dP/dtmax (load independent cardiac contractility)” value [2] was “increases load independent cardiac contractility” and the “left ventricular dP/dtmin (load independent cardiac relaxation)” value [2] was “increases load independent cardiac relaxation”.

With `COc1cccc(OC)c1-n1c(NS(=O)(=O)[C@@H](C)[C@H](O)c2ncc(C)cn2)nnc1-c1cccc(C)n1` [Example 99.0] the “MI Rat Model dP/dtmax(%)” value [1, 8] was 30% and 31%, the “Isolated Heart Assay dP/dtmax(%)” value [2, 9] was 18% and 19.7% and the “Isolated Heart Assay dP/dtmin(%)” value [2, 10] was 30% and 31%.

With `COc1cccc(OC)c1-n1c(NS(=O)(=O)[C@@H](C)[C@H](C)c2cnc(C)cn2)nnc1-c1cccnc1` [Example 198.0, (2S,3R)-N-(4-(2,6-dimethoxyphenyl)-5-(pyridin-3-yl)-4H-1,2,4-triazol-3-yl)-3-(5-methylpyrazin-2-yl)butane-2-sulfonamide] the “MI Rat Model dP/dtmax(%)” value [1, 8] was 15%, the “Isolated Heart Assay dP/dtmax(%)” value [2, 9] was 15.0% and the “Isolated Heart Assay dP/dtmin(%)” value [2, 10] was 19.0%.

For `COc1cccc(OC)c1-n1c(NS(=O)(=O)[C@@H](C)[C@H](OC)c2ncc(C)cn2)nnc1-c1cncc(C)c1` [Example 203.0, (1R,2S)-N-(4-(2,6-dimethoxyphenyl)-5-(5-methyl-3-pyridinyl)-4H-1,2,4-triazol-3-yl)-1-methoxy-1-(5-methyl-2-pyrimiidnyl)-2-propanesulfonamide], the “MI Rat Model dP/dtmax(%)” value [1, 8] was 12%, the “Isolated Heart Assay dP/dtmax(%)” value [2, 9] was “No effect” and the “Isolated Heart Assay dP/dtmin(%)” value [2, 10] was “No effect”.

With `COc1cccc(OC)c1-n1c(NS(=O)(=O)[C@@H](C)[C@H](C)c2ncc(C)cn2)nnc1-c1cccnc1` [Example 586.0, (2S,3R)-N-(4-(2,6-dimethoxyphenyl)-5-(3-pyridinyl)-4H-1,2,4-triazol-3-yl)-3-(5-methyl-2-pyrimidinyl)-2-butanesulfonamide] the “cardiac contractility as measured by dP/dtmax (derivative of left ventricular pressure)” value [1] was “increase in cardiac contractility”, the “Isolated Heart Assay dP/dtmax(%)” value [2] was 15% and the “Isolated Heart Assay dP/dtmin(%)” value [2] was 21%. For the same compound, the “left ventricular dP/dtmax (load independent cardiac contractility)” value [2] was “increases load independent cardiac contractility” and the “left ventricular dP/dtmin (load independent cardiac relaxation)” value [2] was “increases load independent cardiac relaxation”.

With `COc1ncnc(OC)c1-n1c(NS(=O)(=O)[C@@H](C)[C@H](OC)c2ncc(C)cn2)nnc1-c1ccccn1` [Example 628.0, (1R,2S)-N-(4-(4,6-dimethoxy-5-pyrimidinyl)-5-(2-pyridinyl)-4H-1,2,4-triazol-3-yl)-1-methoxy-1-(5-methyl-2-pyrimidinyl)-2-propanesulfonamide] the “MI Rat Model dP/dtmax(%)” value ([1]; rat, in vivo) was 15%, the “Isolated Heart Assay dP/dtmax(%)” value [2] was 18.3% and the “Isolated Heart Assay dP/dtmin(%)” value [2] was 18.0%.

With `COc1cccc(-c2nnc(NS(=O)(=O)[C@@H](C)[C@H](OC)c3ncc(C)cn3)n2-c2c(F)cccc2F)n1.O=C(O)C(F)(F)F` [Example 684.0, (1R,2S)-N-(4-(2,6-difluorophenyl)-5-(6-methoxy-2-pyridinyl)-4H-1,2,4-triazol-3-yl)-1-methoxy-1-(5-methyl-2-pyrimidinyl)-2-propanesulfonamide] the “MI Rat Model dP/dtmax(%)” value [1, 8] was 20%, the “Isolated Heart Assay dP/dtmax(%)” value [2, 9] was 19.0% and the “Isolated Heart Assay dP/dtmin(%)” value [2, 10] was 18.3%.

With `CCCCc1nc(Cl)c(CO)n1Cc1ccc(-c2ccccc2-c2nn[nH]n2)cc1` [losartan] the “effect on the positive cooperativity induced by APJ small molecule agonists” value [4] was “relieved this cooperativity”, the “APJ receptor signaling on blocking AT1R, in vivo studies” value ([1]; ARB losartan together with APJ agonist) was “synergistic effects” and the “APJ receptor signaling on blocking AT1R, ex-vivo studies” value [5] was “synergistic effects”.

For apelin-17, the “in vitro activity compared among apelin-36, apelin-17 and apelin-13” value [6] is listed as “approximately equipotent”.

For apelin-36, the “in vitro activity compared among apelin-36, apelin-17 and apelin-13” value [6] is listed as “approximately equipotent”.

In the case of pyr apelin-13, the “positive cooperativity (IP1 accumulation)” value [7] was “no positive cooperativity observed”.
